Laboratory results: PMC7582876, “Antiproliferative Properties of a Few Auranofin-Related Gold(I) and Silver(I) Complexes in Leukemia Cells and their Interferences with the Ubiquitin Proteasome System” (Molecules, 2020)

Assays:
[1] = molecular target: T1, peptidyl-glutamyl peptide-hydrolyzing (PGPH or caspase-like C-L) activity of human 20S proteasome (Homo sapiens, UniProt P28072); assay: Inhibition of peptidyl-glutamyl peptide-hydrolyzing activity of 20S proteasome (Cbz-Leu-Leu-Glu-AMC); type: biochemical; settings: for PGPH (C-L) inhibition at 10 µM: over 10 min; for IC50: 10 min, no pre-incubation, 30 °C
T1 construct: 20S proteasome, isolated and purified from human erythrocytes; purchased Biomol GmbH, Hamburg, Germany; host or cells: human erythrocytes (native complex)
Protocol: (§1) 20S proteasome, isolated and purified from human erythrocytes, was obtained from a commercial source (Biomol GmbH, Hamburg, Germany), as well as the peptidic substrates (Bachem, Bubendorf, Switzerland) Suc-Leu-Leu-Val-Tyr-AMC, Boc-Leu-Arg-Arg-AMC and Cbz-Leu-Leu-Glu-AMC for ChT-L, T-L and PGPH (C-L) activity of the enzyme, respectively. The three distinct proteolytic activities of the 20S proteasome were measured by monitoring the hydrolysis of the substrates and detecting the fluorescence of the common product released, i.e., 7-amino-4-methyl coumarin (7-AMC), by means of an Infinite 200 PRO microplate reader (Tecan, Männedorf, Switzerland) at 30 °C with a 380-nm excitation filter and a 460-nm emission filter. All gold and silver complexes were tested against the three proteolytic activities of the 20S proteasome and against Cat-B, Cat-L and bovine pancreatic α-chymotrypsin at 10 µM concentrations over a period of 10 min using an equivalent amount of DMSO as a negative control. […] The IC50 values were calculated with the program GraFit® using the two-parameter equation. More detailed experimental protocols for the assays against each proteolytic activity of the 20S proteasome, as well as against bovine pancreatic α-chymotrypsin, are already reported elsewhere (see also Supplementary Materials). Cat-B and Cat-L were purchased from Calbiochem, Darmstadt, Germany, and the related assays were performed as previously described. The employed fluorogenic substrate for both cysteine proteases was Cbz-Phe-Arg-AMC (80 µM for Cat-B; 5 µM for Cat-L). […]
Inhibition assay for the Post-Glutamyl Peptide Hydrolyzing Activity of the 20S
with the test compound present at 10 µM (screening assay) or variable concentrations. The
reaction buffer consisted of 50 mM Tris buffer pH 7.5 containing 25 mM KCl, 10 mM NaCl,
1 mM MgCl2, 0.03% SDS, 5% DMSO. Product release from substrate hydrolysis ([…])
was monitored continuously over a period of 10 min.

[2] = molecular target: T2, chymotrypsin-like (ChT-L) activity of human 20S proteasome (Homo sapiens, UniProt P28074); assay: Inhibition of chymotrypsin-like activity of 20S proteasome (Suc-Leu-Leu-Val-Tyr-AMC); type: biochemical; settings: for ChT-L inhibition at 10 µM: over 10 min; for IC50: 10 min, no pre-incubation, 30 °C
T2 construct: 20S proteasome, isolated and purified from human erythrocytes; purchased Biomol GmbH, Hamburg, Germany; host or cells: human erythrocytes (native complex)
Protocol: as §1
Inhibition assay for the Chymotryptic Activity of the 20S Proteasome
Human 20S proteasome was incubated at 30 °C at a final concentration of 0.004 mg∙mL−1
with test compound present at 10 µM (screening assay) or at variable concentrations
(continuous assay). The reaction buffer consisted of 50 mM Tris pH 7.5, 10 mM NaCl, 25
mM KCl, 1 mM MgCl2, 0.03% SDS and 5% DMSO. Product release from substrate
hydrolysis ([…]) was monitored continuously over a period of 10 min. […]

[3] = system: human embryonic kidney cells (HEK293); set-up: method as in PMID 29057040; settings: previously assessed, ref [18], read-out: IC50, cell viability of healthy cells (HEK293); cited from earlier work
[4] = system: human fibroblast cells (HDF); set-up: method as in PMID 29057040; settings: previously assessed, ref [18], read-out: IC50, cell viability of healthy cells (HDF); cited from earlier work

| Compound | PGPH (C-L) inhibition at 10 µM [1] | ChT-L inhibition at 10 µM [2] | IC50 [1] [µM] | IC50 [2] [µM] | IC50 [3] [µM] | IC50 [4] [µM] |
| --- | --- | --- | --- | --- | --- | --- |
| CC[PH](CC)(CC)[Ag][Br] [Ag(PEt3)Br] | n.i. | 22 ± 0.4% | – | – | – | – |
| CC[PH](CC)(CC)[Ag][Cl] [Ag(PEt3)Cl] | n.i. | 28 ± 0.5% | – | – | – | – |
| CC[PH](CC)(CC)[Ag][I] [Ag(PEt3)I] | n.i. | 25 ± 0.2% | – | – | – | – |
| CCP(CC)CC.[Br][Au] [Au(PEt3)Br] | – | – | > 10 | 1.4 ± 0.8 | – | – |
| CCP(CC)CC.[Au+].[Cl-] [Au(PEt3)Cl] | – | – | > 10 | 2.6 ± 0.3 | > 5 | > 5 |
| CC[P](CC)(CC)[Au][I] [Au(PEt3)I] | – | – | > 10 | 6.1 ± 0.4 | > 5 | > 5 |
| CCP(CC)CC.CCP(CC)CC.O=[N+]([O-])[O-].[Ag+] [[Ag(PEt3)2]NO3] | n.i. | 38 ± 5.0% | – | – | – | – |
| CC(=O)OC[C@H]1O[C@@H]([S-])[C@H](OC(C)=O)[C@@H](OC(C)=O)[C@@H]1OC(C)=O.CCP(CC)CC.[Au+] [auranofin, Auranofin] | n.i. | n.i. ^a | – | – | > 5 | > 5 |
